Data on one molecule can be found in patent publication US20240199555A1, “APPLICATIONS OF BIASED LIGANDS OF THE SEROTONIN 5-HT7 RECEPTOR FOR THE TREATMENT OF PAIN, MULTIPLE SCLEROSIS AND THE CONTROL OF THERMOREGULATION” (Centre National de la Recherche Scientifique, priority 2021, published 2024).

The test system of assay [1] is neuronal culture endogenously expressing 5-HT7R. Put plainly: pERK immunocytochemistry in mixed neuronal cultures. The class given is cell-based, mice. The conditions noted are these: 10 μM; 7, 15, 30 min. From the text:
FIG. 4: Serodolin stimulation induces ERK phosphorylation in neuronal culture. […] These images are representative of two independent experiments. (B) pERK fluorescence intensity (AU) from immunofluorescence staining. Results represent mean±SEM of values obtained in two independent experiments (150-200 cells counted per group). ****P<0.0001 ***P<0.001 **P<0.01 *P<0.05. Statistical analysis was done using Tukey's multiple comparison test. Cerebral cortex from embryos (E15) mice were collected and mechanically dissociated in 1 mL of HBSS (-Ca^2+) (Sigma) with HEPES (H3375, Sigma). […] Neuronal differentiation was performed in 24-well plates, during 7 days with 3 medium changes per week. Stimulated neuronal culture were fixed with 4% paraformaldehyde in PBS during 10 min and then washed with PBS. Cells were saturated with 0.3% Triton X-100 in 1% BSA in TBS-FCS 10% for 1 hr, followed by three washes in TBS and incubated overnight with rabbit anti-pERK (9101 1/200, Cell Signaling) and mouse anti-MAP2 (119942 1/250, Sigma), anti-GFAP (G61711/250, Sigma) in TBS with 1% BSA, 10% FCS and 0.3% Triton X-100. […] Images were processed with the Zen software analyzed with Image J.

The target of assay [2] is human 5-HT1A receptor (Homo sapiens (Human), UniProt P08908). Kind of assay: Radioligand binding competition, 5-HT1A. Conditions: selectivity panel.
Assay [3] has as its system C57BL/6 mice. Put plainly: Spared Nerve Injury (SNI) neuropathic pain model, Von Frey. Conditions: s.c.
Description: Pregabalin, vehicle or compounds solutions are subcutaneously administrated for 8 consecutive days. • (A) Mechanical response threshold after the first administration (D+10). […] Positive control animals were treated with Pregabalin (5 mg/kg, sc). Statistical differences are indicated compared to vehicle group (Two-way RM ANOVA followed by Bonferroni post-hoc test: ***p<0.001, ** p<0.01, * p<0.05). […] Positive control animals were treated with Pregabalin (5 mg/kg, sc). Statistical differences are indicated compared to vehicle group (Two-way RM ANOVA followed by Bonferroni post-hoc test: ***p<0.001, ** p<0.01, * p<0.05). […] (Two-way RM ANOVA followed by Bonferroni post-hoc test: ***p<0.001, ** p<0.01, * p<0.05)
MOA51 and Serodolin (AIC01) compounds were diluted in NDT solution (NaCl 0.9%—DMSO 20%—Tween80 5%). […] AIC01 was resuspended at 0.5 mg/mL and administrated at a ratio of 100 μl per 10 g (dose of 5 mg/kg).
Experiment starts with 8 weeks old male C57B16J mice (from Charles River). Study was performed on 40 mice (2 mice were excluded during the study due to health guidelines) divided in 4 randomized groups. • Group A: s.c. injection at 5 mg/kg of pregabalin. • Group B: s.c. injection at 0.5 mg/kg of MOA51. • Group C: s.c. injection at 5 mg/kg of Serodolin (AIC01). • Group D: s.c. injection of NDT solution (referred as Vehicle hereafter).
Compounds solutions, pregabalin and vehicle were subcutaneously administrated (100 μl/10 g) for 9 consecutive days, starting 10 days after surgery. Ligature and transection of the common peroneal and tibial distal branches of the sciatic nerve was made leaving the sural branch intact. 7 days post-surgery, a decrease of threshold response to Von Frey filaments of ipsilateral hind-paw was observed corresponding to neuropathic pain apparition (mechanical allodynia). Mechanical threshold response of mice were measured with calibrated Von Frey filaments using the up/down method. Experimenter was blind to mice treatment. Measures are performed as follow: one baseline measure before surgery, one measure at D+10, D+12, D+14, D+16 and D+18 before drug's administration, and 1 h, 2 h post-drug administration. A supplementary measure 4 h post-drug administration was performed at D+10 and D+18.
Two-way RM ANOVA (followed by Bonferroni post-hoc test) was used to analysed time course response at D+10 and D+18. Area under the curve was determined with the 1 h and 2 h post-drug administration measures to investigated tolerance of repeated administration of compounds
Assay [4] deals with human 5-HT7a receptor (Homo sapiens (Human), UniProt P34969). Kind of assay: Radioligand binding competition, filtration binding assay, 5-HT7a. Conditions: affinity on 5-HT7 receptor, table of new compounds.
In assay [5] the test system is mice. Put plainly: Acetic acid-induced writhing test. The class given is in vivo. The procedure: (§1) FIG. 9: Analgesic effect of Serodolin in the acetic acid-induced writhing test. In this test, nociception was induced by an intraperitoneally injection (ip) of 0.1 ml/10 g acid acetic solution (10 ml/kg) in peripheral origin. Serodolin at increasing dosage was administrated by oral (po), intravenous (iv) or subcutaneous (sc) route before acid acetic injection (upper panel). Positive control animals were pretreated morphine (3 mg/kg, sc) 10 minutes before acetic acid. Five minutes after i.p. injection of acetic acid the number of writhing was recorded for 10 minutes. Data mean±SEM of values obtained from a representative experiment (n=10 animals/group). ****p<0.0001 ***p<0.001 **p<0.01 *p<0.05 as compared with the control group (Vh).
as §1, with “16:” for “9:”, “MOA51” for “Serodolin”, “i.p.injection” for “i.p. injection”, “animals/group).” for “animals/group). ****p<0.0001 ***p<0.001”, “**p<0.01” for “**p<0.01 *p<0.05”
Writhing tests: Mice (25-35 g). Groups of mice (n=10) received by oral, subcutaneous or intravenous route Serodolin at different doses (0.1-10 mg/kg) one hour before intraperitoneally injection of 1% acetic acid in a volume of 10 ml/kg. Control group received vehicle (10 ml/kg, solution of 20% DMSO and 5% tween 80). The test was carried out 5 minutes later after acid acetic injection. The characteristic writhing responses have been observed individually and counted for 10 minutes.
Analgesic activity was first evaluated using the acetic acid abdominal constriction test (writhing test), a chemical model of visceral pain. We evaluated the dose-response effect of Serodolin following single oral, intravenous and subcutaneous administration of the compound one hour before injection of acetic acid.
Analgesic activity was evaluated using the acetic acid abdominal constriction test (writhing test), a chemical model of visceral pain. We evaluated the dose-response effect of MOA51 following single oral, intravenous and subcutaneous administration of the compound one hour before injection of acetic acid. MOA51 administered by the oral route induced statistically significant dose-dependent decreases in the number of writhings at and above the dose of 1 mg/kg. By the intravenous route, MOA51 induced dose-dependent decreases in the number of writhings at and above the dose of 0.1 mg/kg.

Molecules are shown by their SMILES. pIC50, pKi: −log10 of the molar value.

Sequence of human 5-HT7a receptor (P34969 other isoform, or with tags, fused parts or gaps): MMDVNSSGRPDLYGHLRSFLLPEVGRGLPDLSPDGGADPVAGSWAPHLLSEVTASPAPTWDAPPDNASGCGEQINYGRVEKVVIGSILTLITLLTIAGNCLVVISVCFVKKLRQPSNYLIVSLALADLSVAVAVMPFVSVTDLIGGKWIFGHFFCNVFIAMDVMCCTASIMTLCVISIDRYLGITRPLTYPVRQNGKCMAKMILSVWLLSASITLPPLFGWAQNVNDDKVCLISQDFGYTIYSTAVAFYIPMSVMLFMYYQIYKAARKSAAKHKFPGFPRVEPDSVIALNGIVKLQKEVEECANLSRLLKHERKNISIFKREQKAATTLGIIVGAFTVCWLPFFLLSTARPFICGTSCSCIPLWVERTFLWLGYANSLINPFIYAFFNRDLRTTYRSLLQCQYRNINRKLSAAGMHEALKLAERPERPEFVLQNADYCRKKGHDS
Sequence of human 5-HT1A receptor (P08908 whole entry): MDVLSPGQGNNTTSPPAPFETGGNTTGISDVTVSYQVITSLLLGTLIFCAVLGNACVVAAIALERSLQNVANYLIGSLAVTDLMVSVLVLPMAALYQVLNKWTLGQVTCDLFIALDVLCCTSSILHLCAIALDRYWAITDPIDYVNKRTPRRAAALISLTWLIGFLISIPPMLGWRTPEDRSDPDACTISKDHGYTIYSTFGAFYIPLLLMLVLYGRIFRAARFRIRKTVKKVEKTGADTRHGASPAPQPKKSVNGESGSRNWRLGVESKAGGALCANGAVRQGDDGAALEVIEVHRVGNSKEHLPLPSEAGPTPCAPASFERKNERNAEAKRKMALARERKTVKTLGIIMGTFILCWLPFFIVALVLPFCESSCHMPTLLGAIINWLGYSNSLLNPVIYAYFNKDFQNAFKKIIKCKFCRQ

Take `O=c1[nH]c2ccccc2n1CN1CCN(c2ccc(F)cc2)CC1` [Serodolin]: the “ERK phosphorylation in neuronal culture” value in assay [1] is recorded as “ERK phosphorylation also occurs in neuronal culture”. Also, the results for the negative-log IC50 (pIC50) in assay [2] (read-out: RLB 5-HT1A IC50) and in assay [4] were 6.69 and 8.94, respectively. The pKi was 6.99 in assay [2] (read-out: RLB 5-HT1A Ki) and 9.10 in assay [4]. Also, in assay [3] (9 consecutive days), the “tolerance after repetitive administration (AUC)” value is “didn't present any tolerance effect after repetitive administration”. The “mechanical response threshold vs vehicle” value in assay [3] (first (D+10) and last (D+18) administration, 1 h and 2 h) is given as “significant increase of the mechanical threshold response”. In addition, in assay [5] (at the highest dosage), the “inhibition of the writhing assay response” value is “up to 87%”. Besides, the “dose giving significant decrease in number of writhings, subcutaneous route” value in assay [5] (s.c., one hour before acetic acid) stood at 0.1 mg/kg.
